The subject of one data set is Hep3B cells. Description: Hep3B cell proliferation inhibition test (CellTiter-Glo). It is filed as cell-based. The conditions noted are these: Homo sapiens, 72 h, CTG. The method, then:
Hep3B Cell Proliferation Inhibition Test
The influence of the compound according to the present invention on Hep3B cell proliferation was evaluated by a luminescence cell viability test.
(§1) The experimental method is summarized as follows:
A CellTilter-Glo (CTG) assay kit was used to detect an indicator ATP of active cellular metabolism by means of a unique stable luciferase, and the luminous signal produced in the test was in direct proportion to the count of active cells in the medium, thereby to detect the cell proliferation of Hep3B.
A CellTilter-Glo agent (Promega, G7572) was comprised of a CellTilter-Glo lyophilized powder and a CellTilter-Glo buffer, and the lyophilized powder was dissolved into the buffer in use.
Hep3B cells (ATCC, HB-8064) (cell source: Shanghai Academy of Life Sciences, Chinese Academy of Sciences) were cultured in a DMEM complete medium (Thermofisher, 11995073) containing a 10% FBS (GBICO, 10099-141) and 100 units/ml mycillin mixed solution (Thermofisher, 15140122). When the cells coverage reached 80-90% in the culture vessel, after the cells were digested and blown about with 0.25% pancreatin (containing EDTA) (Thermofisher, 25200056), they were planted in a white 384 well plate (Thermofisher, 164610), with 1000 cells in each well (27 μl of a DMEM complete medium), and then the 384 well plate was placed into an incubator at 37° C. and 5% CO2 and cultured overnight (18-20 h). The compound was dissolved and diluted in 100% DMSO to 100 μM, then 4-fold-series diluted with DMSO to a minimum concentration of 0.0061 μM, and each concentration point was 50-fold diluted with the FBS-free DMEM medium. If the IC50 value of the compound was very low, the initial concentration of the compound could be reduced. […] This 384 well plate was placed into an incubator at 37° C. and 5% CO2 for further culture, taken out after 72 h, and stood at room temperature for 30 min. The CTG agent was also taken out and balanced to room temperature. 15 μl of the CTG agent was added into each well, and placed onto a shaker to be gently shaken for 3 min to ensure sufficient cell lysis. After 10 min of standing to allow the luminescence signal to be stable, the luminescence signal was read with EnVision (Perkin Elmer).
The inhibition percentage of the compound against Hep3B cell proliferation could be calculated with the following formula: Inhibition percentage=100−100*(signalcompound−signalnegative control)/(signalpositive control−signalnegative control)
The IC50 value of the compound was calculated by the following formula, from 8 concentration points, with XLfit (ID Business Solutions Ltd., UK): Y=Bottom+(Top−Bottom)/(1+10^((Log IC50−X)*slope factor))
(§2) Where, Y is the inhibition percentage, Bottom is the bottom plateau of the curve (the bottom plateau of the S-type curve), Top is the top plateau of the curve (the top plateau of the S-type curve), and X is the log value of the compound concentration to be measured.
In general terms: ATP-based viability assays read luminescence as a measure of living cells.

Data set [1] has as its system FGF19/FGFR4-overexpressed Hep3B hepatocellular carcinoma (HCC) xenograft tumors. The class given is in vivo. To be noted: for TGI value / mean tumor size: oral, day 18. Here is the method:
Data points represent group mean, error bars represent standard error of the mean (SEM). *P<0.05, **P<0.01, ***P<0.001, ****P<0.0001, NS P>0.05 vs vehicle group.
The relative change of body weights (% RCBW) was calculated based on the following formula: RCBW (%)=(BWi−BW0)/BW0×100%, BWi was the bodyweight on the day of dosing and BW0 was the bodyweight on the first day of administration. Data points represent percent group mean change in BW. Error bars represent standard error of the mean (SEM).
Dosing was initiated on day 0 and effects on tumor growth were evaluated by measuring percent tumor growth inhibition (TGI) at the end of the study. Tolerability was assessed by body weight loss, lethality, and clinical signs of adverse treatment-related side effects. Tumor volumes and body weights were measured twice per week in the administration period. The percentage of TGI was determined on day 18 of the study. The difference between the mean values of tumor volume in treatment and vehicle groups was analyzed for significance using one-way ANOVA (followed by Dennett's test) at each time point and a P<0.05 was considered to be statistically significant.

Data set [2] has as its target human recombinant FGFR2 catalytic structural domain protein (Homo sapiens (Human), UniProt P21802). Description: FGFR2 activity inhibition test (HTRF kinase assay). The class given is biochemical. The conditions noted are these: 50 μM ATP. Here is the method: FGFR2 Activity Inhibition Test
The influence of the compound according to the present invention on the activity of fibroblast growth factor receptor 2 (FGFR2) was evaluated by an in vitro kinase assay experiment.
as §1
The in vitro activity of FGFR2 was determined by assaying the phosphorylation level of the substrate in the kinase reaction, by means of an HTRF kinase assay kit. The reaction buffer comprised the following components: 5-fold diluted Enzymatic buffer/kinase 5× (Cisbio, Catalog number 62EZBFDD) (main ingredient: 50 mM HEPES, pH 7.0), 5 mM MgCl2, 1 mM DTT; the human recombinant FGFR2 catalytic structural domain protein (amino acids 400-821) was commercially available from Beijing Sino Biological Inc., diluted with the reaction buffer to a 0.045 ng/μL kinase solution; the substrate reaction solution comprised a biotin labeled tyrosine kinase substrate diluted with the reaction buffer to 800 nM (Cisbio, catalog number 62TK0PEC), and 50 μM ATP, and the assay solution comprised an Eu^3+ labeled cage-shaped antibody (Cisbio, Catalog number 61T66KLB) diluted with the assay buffer (Cisbio, Catalog number 62SDBRDF) to 0.125 ng/μL, and 50 nM streptavidin labeled XL665 (Cisbio, Catalog number 610SAXLB).
The compound was dissolved and diluted in 100% DMSO to 100 μM, then 4-fold-series diluted with DMSO to a minimum concentration of 0.0061 μM, and each concentration point was then 40-fold diluted with the reaction buffer. If the IC50 value of the compound was very low, the initial concentration of the compound could be reduced.
4 μL of a compound solution and 2 μL of an FGFR2 kinase solution were added into a 384 well assay plate (Thermo, Catalog number 264706), mixed uniformly and then incubated for 15 min at room temperature; subsequently, 4 μL of the substrate reaction solution was added therein, and the reaction mixture was incubated for 60 min at room temperature; and then 10 μL of an assay solution of an equal volume to the reaction was added therein and mixed uniformly, followed by placement at room temperature. After 60 min, the enzyme reaction was terminated by EDTA in the assay solution, and the phosphorylated products were identified by both the Eu^3+ labeled cage-shaped antibody (donor) and the streptavidin labeled XL665 antibody (receptor) at the same time. After the excitation with laser, the donors and receptors that were close to each other experienced energy resonance transfer, and the energy transferred from the donor (620 nm) to the receptor (665 nm) could be detected with Envision. The ratio of 665/620 is in positive correlation to the phosphorylation degree of the substrate, thereby to detect the FGFR2 kinase activity. […] The inhibition percentage of the compound against FGFR2 activity could be calculated with the following formula: Inhibition percentage=100−100*(signalcompound−signalnegative control)/(signalpositive control−signalnegative control)
(§3) The IC50 value of the compound was calculated by the following formula, from 10 concentration points, with XLfit (ID Business Solutions Ltd., UK): Y=Bottom+(Top−Bottom)/(1+10^((Log IC50−X)*slope factor))
as §2
On the technique in general: In TR-FRET formats the signal depends on donor and acceptor labels being close together.

In data set [3] the target is human recombinant FGFR1 catalytic structural domain protein (Homo sapiens (Human), UniProt P11362). As to the kind of experiment: FGFR1 activity inhibition test (HTRF kinase assay). The conditions noted are these: 40 μM ATP. It is filed as biochemical. Here is the method: FGFR1 Activity Inhibition Test
The influence of the compound according to the present invention on the activity of fibroblast growth factor receptor 1 (FGFR1) was evaluated by an in vitro kinase assay experiment.
as §1
The in vitro activity of FGFR1 was determined by assaying the phosphorylation level of the substrate in the kinase reaction, by means of an HTRF kinase assay kit.
(§4) If the IC50 value of the compound was very low, the initial concentration of the compound could be reduced.
After 60 min, the enzyme reaction was terminated by EDTA in the assay solution, and the phosphorylated products were identified by both the Eu^3+ labeled cage-shaped antibody (donor) and the streptavidin labeled XL665 antibody (receptor) at the same time. […] The inhibition percentage of the compound against FGFR1 activity could be calculated with the following formula: Inhibition percentage=100−100*(signalcompound−signalnegative control)/(signalpositive control−signalnegative control)
as §3, §2

For data set [4], the target named is human recombinant FGFR4 catalytic structural domain protein (Homo sapiens (Human), UniProt P22455). As to the kind of experiment: FGFR4 activity inhibition test (HTRF kinase assay). The class given is biochemical. The conditions noted are these: 90 μM ATP. Here is the method:
FGFR4 Activity Inhibition Test
The influence of the compound according to the present invention on the activity of fibroblast growth factor receptor 4 (FGFR4) was evaluated by an in vitro kinase assay experiment.
as §1
The in vitro activity of FGFR4 was determined by assaying the phosphorylation level of the substrate in the kinase reaction, by means of an HTRF kinase assay kit.
as §4
After 60 min, the enzyme reaction was terminated by EDTA in the assay solution, and the phosphorylated products were identified by both the Eu^3+ labeled cage-shaped antibody (donor) and the streptavidin labeled XL665 antibody (receptor) at the same time. […] The inhibition percentage of the compound against FGFR4 activity could be calculated with the following formula: Inhibition percentage=100−100*(signalcompound−signalnegative control)/(signalpositive control−signalnegative control)
The IC50 value of the compound was calculated by the following formula, from 10 concentration points, with XLfit (ID Business Solutions Ltd., UK): Y=Bottom+(Top−Bottom)/(1+10^((Log IC50−X)*slope factor)) Where, Y is the inhibition percentage, Bottom is the bottom plateau of the curve (the bottom plateau of the S-type curve), Top is the top plateau of the curve (the top plateau of the S-type curve), and X is the log value of the compound concentration to be measured.

Where two headings read alike, the source gives them in different places.

Usually IC50 stands for the midpoint of a concentration-inhibition curve.

Sequence of human recombinant FGFR4 catalytic structural domain protein (P22455 460-802): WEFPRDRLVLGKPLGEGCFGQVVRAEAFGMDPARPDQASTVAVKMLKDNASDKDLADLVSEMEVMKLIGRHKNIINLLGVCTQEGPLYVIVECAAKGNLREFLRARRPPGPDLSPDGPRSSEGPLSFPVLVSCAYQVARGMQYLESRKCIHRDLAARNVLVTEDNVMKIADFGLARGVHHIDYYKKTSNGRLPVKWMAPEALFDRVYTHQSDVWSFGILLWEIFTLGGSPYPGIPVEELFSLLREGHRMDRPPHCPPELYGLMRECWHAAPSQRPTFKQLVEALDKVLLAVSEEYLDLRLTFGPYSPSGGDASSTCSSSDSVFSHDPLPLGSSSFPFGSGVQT
Sequence of human recombinant FGFR2 catalytic structural domain protein (P21802 400-821): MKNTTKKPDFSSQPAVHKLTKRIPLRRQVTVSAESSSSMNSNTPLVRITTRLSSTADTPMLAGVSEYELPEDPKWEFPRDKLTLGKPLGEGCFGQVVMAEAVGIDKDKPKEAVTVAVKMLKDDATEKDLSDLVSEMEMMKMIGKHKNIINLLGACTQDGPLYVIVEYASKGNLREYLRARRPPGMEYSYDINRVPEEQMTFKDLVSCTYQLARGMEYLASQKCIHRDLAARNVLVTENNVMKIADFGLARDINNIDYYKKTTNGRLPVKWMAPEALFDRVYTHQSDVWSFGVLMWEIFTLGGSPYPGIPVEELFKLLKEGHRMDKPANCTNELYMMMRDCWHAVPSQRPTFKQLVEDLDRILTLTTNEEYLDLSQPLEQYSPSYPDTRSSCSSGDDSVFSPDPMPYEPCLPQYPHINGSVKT
Sequence of human recombinant FGFR1 catalytic structural domain protein (P11362 other isoform, or with tags, fused parts or gaps): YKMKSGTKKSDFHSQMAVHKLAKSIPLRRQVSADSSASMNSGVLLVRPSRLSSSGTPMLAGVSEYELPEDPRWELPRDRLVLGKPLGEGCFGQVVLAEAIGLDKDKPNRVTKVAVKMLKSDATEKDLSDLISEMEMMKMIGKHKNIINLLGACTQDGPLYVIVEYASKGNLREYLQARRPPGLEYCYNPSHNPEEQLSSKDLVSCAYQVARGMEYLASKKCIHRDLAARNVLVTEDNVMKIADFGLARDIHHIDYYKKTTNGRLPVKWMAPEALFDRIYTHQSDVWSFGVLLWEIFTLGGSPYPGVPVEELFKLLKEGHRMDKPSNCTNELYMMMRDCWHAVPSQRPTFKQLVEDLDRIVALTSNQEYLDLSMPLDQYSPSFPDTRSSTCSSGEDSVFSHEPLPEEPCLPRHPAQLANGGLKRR

For the compound `COCCNc1cc(NC(=O)N(C)c2ccc(CN3CCOCC3=O)c(C=O)n2)ncc1C#N` [Compound 9, 3-(5-cyano-4-((2-methoxyethyl)amino)pyrid-2-yl)-1-(6-formyl-5-((3-carbonylmorpholino)methyl)pyrid-2-yl)-1-methylurea], the IC50 with Hep3B cells is less than 50 nM.
For the compound `CC(C)Nc1cc(NC(=O)N(C)c2ccc(CN3CCOCC3=O)c(C=O)n2)ncc1C#N` [Compound 10, 3-(5-cyano-4-(isopropylamino)pyrid-2-yl)-1-(6-formyl-5-((3-carbonylmorpholino)methyl)pyrid-2-yl)-1-methylurea], the IC50 in the data set on Hep3B cells is 50 to 100 nM.
On the same count and under the same terms, in the case of `COCCOc1cc(NC(=O)N(C)c2ccc(CN3CCOCC3=O)c(C=O)n2)ncc1C#N` [Compound 12] it was less than 50 nM; in that of `CC(C)Nc1cc(NC(=O)N(C)c2ccc(CN3CCN(C)CC3=O)c(C=O)n2)ncc1C#N` [Compound 16, 3-(5-cyano-4-(isopropylamino)pyrid-2-yl)-1-(6-formyl-5-((4-methyl-2-carbonylpiperazin-1-yl)methyl)pyrid-2-yl)-1-methylurea], less than 50 nM.
Take `COC[C@@H](C)Oc1cc(NC(=O)N(C)c2ccc(CN3CCN(C)CC3=O)c(C=O)n2)ncc1C#N` [Compound 18, (R)-3-(5-cyano-4-((1-methoxyprop-2-yl)oxo)pyrid-2-yl)-1-(6-formyl-5-((4-methyl-2-carbonylpiperazin-1-yl)methyl)pyrid-2-yl)-1-methylurea]: the TGI value was 96.4% in data set [1] (10 mg/kg BID for 18 days), 108.3% in data set [1] (30 mg/kg BID for 18 days), 104.4% in data set [1] (60 mg/kg QD for 18 days) and 109.2% in data set [1] (100 mg/kg BID for 18 days). In addition, the mean tumor size in data set [1] (10 mg/kg BID for 18 days) was determined as 230 mm^3; in data set [1] (30 mg/kg BID for 18 days), 16 mm^3; in data set [1] (60 mg/kg QD for 18 days) it was 86 mm^3; in data set [1] (100 mg/kg BID for 18 days), 0 mm^3. Further, in data set [1] (all dose levels), the “tolerability by tumor-bearing animals” value is on record as “well-tolerated”. Further, the “body weight loss during the treatment” value in data set [1] (all groups) is on record as “didn't exhibit significant body weight loss”. Moreover, the IC50 in the data set on Hep3B cells is less than 50 nM.
With `CC(C)Oc1cc(NC(=O)N(C)c2ccc(CN3CCN(C)CC3=O)c(C=O)n2)ncc1C#N` [Compound 19, 3-(5-cyano-4-isopropoxypyrid-2-yl)-1-(6-formyl-5-((4-methyl-2-carbonylpiperazin-1-yl)methyl)pyrid-2-yl)-1-methylurea], the IC50 in the data set on Hep3B cells was 50 to 100 nM.
`COCCNc1cc(NC(=O)N(C)c2ccc(C3CCNCC3)c(C=O)n2)ncc1C#N` [Compound 23, 3-(5-cyano-4-((2-methoxyethyl)amino)pyrid-2-yl)-1-(6-formyl-5-(piperidin-4-yl)pyrid-2-yl)-1-methylurea]: the IC50 in data set [2] was more than 1000 nM; in data set [3], more than 1000 nM; in the data set with Hep3B cells, 50 to 100 nM; in data set [4], 10 to 100 nM.

The record behind these values is patent US10590109B2, “Heterocyclic compounds used as FGFR inhibitors” (Nanjing InnoCare Pharma Tech Co., Ltd., priority 2016, dated 2020).
